Measured values taken from article PMC11643677, “In Silico Prediction of Alkaline Phosphatase Interaction with the Natural Inhibitory 5-Azaindoles Guitarrin C and D” (Molecules, 2024).
Entries after “also recorded” stand apart in the source; their conditions may differ.

Experiments:
ALP = test system: ALP; design: method as in PMID 25694083, PMID 37274413, PMID 36362051; conditions: standard inhibitory ligands of ALP ref 17-19; cited from earlier work
[1] = target: Vibrio splendidus alkaline phosphatase (VAP); design: method as in PMID 33102813; conditions: cited from earlier work
[2] = target: T1, alkaline phosphatase CmAP (Cobetia amphilecti, UniProt Q1W622); design: method as in PMID 31181923; conditions: cited from earlier work; for affinity relative to the chelator EDTA: CmAP, higher affinity than EDTA ref 33; for inhibitory activity against CmAP: previous study ref 33
[3] = target: T2, calf intestinal alkaline phosphatase (CIAP) (Bos taurus, UniProt P19111); assay: Inhibitory activity assay on calf intestinal alkaline phosphatase (pNPP hydrolysis); type: biochemical; conditions: for IC50: 2 mM pNPP, 0.1 M Tris-HCl pH 10.0, 0.2 M KCl, 37 °C, 60 min preincubation, mean of three ± SD; for Ki: by the Cheng–Prusoff formula Ki = IC50/(1 + [S]/Km)
T2 construct: purchased Invitrogen, Thermo Fisher Scientific 18009019
Experimental: (§1) The enzymatic activity was evaluated through the addition of 5 μL of the protein solution sample to a solution of 495 μL buffer, comprising 0.1 M Tris-HCl (pH 10.0), 0.2 M KCl, and 2 mM pNPP. The reaction mixture was incubated at 37 °C for a period of 30 min. To halt the reaction, 2 mL of chilled 0.5 M NaOH was introduced. The quantity of p-nitrophenol (pNP) produced was quantified spectrophotometrically at a wavelength of 400 nm, with the control sample, which lacked the enzyme, serving as a reference point. The specific activity was calculated using the following formula: (2.5 × OD400)/(18.6 × 0.005 × t × C), where OD400 is the optical density at a wavelength of 400 nm, 2.5 is the volume of the reaction mixture in mL, 18.6 is the extinction coefficient of pNP (M^−1/cm^−1), t is the incubation time at 37 °C in minutes, 0.005 is the sample volume in mL, and C is the protein concentration in the sample (mg/mL). The quantity of enzyme required for the generation of 1 µM pNP within a one-minute period was established as the unit of activity.
(§2) The effect of the natural inhibitors guitarrins C and D [33] on the activity of the alkaline phosphatases CmAP from C. amphilecti KMM 296 and calf intestinal alkaline phosphatase (CIAP, Invitrogen™ 18009019, Thermo Fisher Scientific, Waltham, MA, USA) was investigated in a buffer containing 0.1 M tris-HCl (pH 10.0) with 0.2 KCl. […] The activity of ALPs was determined using the standard method described above. CmAP (3.22 mg/mL, 2929 U/mg) and CIAP (0.99 mg/mL, 647 U/mg) were dissolved in 50 mM tris-HCl (pH 8.0) buffer with 2 mM MgCl2. Results were presented as the percentage of inhibition relative to control activity. The IC50 for each compound tested was defined as the concentration of compound that inhibited the enzyme activity by 50%. IC50 values are given as the mean of three experiments and standard deviation.
(§3) The kinetic parameters (Km and Vmax) were determined for alkaline phosphatases CmAP and CIAP. The mean Km values and standard deviations were presented. […] The inhibition constant, Ki, was determined using the Cheng–Prusoff formula [51]. The binding activity of the inhibitor to the reactive substrate (Ki) can be calculated using the following formula: Ki = IC50/(1 + [S]/Km), where IC50 is the functional activity of the inhibitor, [S] is the concentration of the reactive substrate, and KM is the Michaelis constant. The results were presented in the Origin 7.0 software.

[4] = target: T1, alkaline phosphatase CmAP; assay: Inhibitory activity assay and kinetics on alkaline phosphatase CmAP (pNPP hydrolysis); type: biochemical, Cobetia amphilecti KMM 296; conditions: for IC50: 2 mM pNPP, 0.1 M Tris-HCl pH 10.0, 0.2 M KCl, 37 °C, 60 min preincubation, mean of three ± SD; for residual activity: at maximum inhibition; for Ki: by the Cheng–Prusoff formula Ki = IC50/(1 + [S]/Km); for type of inhibition: pNPP substrate; for Vmax in the presence of inhibitor: pNPP, guitarrin C 52.0 µM, guitarrin D 96.0 µM, 60 min preincubation at 23 °C, without inhibitor 5.98 ± 0.03
Experimental: as §1, §2, §3

T2 sequence (P19111 20-506 limits assumed): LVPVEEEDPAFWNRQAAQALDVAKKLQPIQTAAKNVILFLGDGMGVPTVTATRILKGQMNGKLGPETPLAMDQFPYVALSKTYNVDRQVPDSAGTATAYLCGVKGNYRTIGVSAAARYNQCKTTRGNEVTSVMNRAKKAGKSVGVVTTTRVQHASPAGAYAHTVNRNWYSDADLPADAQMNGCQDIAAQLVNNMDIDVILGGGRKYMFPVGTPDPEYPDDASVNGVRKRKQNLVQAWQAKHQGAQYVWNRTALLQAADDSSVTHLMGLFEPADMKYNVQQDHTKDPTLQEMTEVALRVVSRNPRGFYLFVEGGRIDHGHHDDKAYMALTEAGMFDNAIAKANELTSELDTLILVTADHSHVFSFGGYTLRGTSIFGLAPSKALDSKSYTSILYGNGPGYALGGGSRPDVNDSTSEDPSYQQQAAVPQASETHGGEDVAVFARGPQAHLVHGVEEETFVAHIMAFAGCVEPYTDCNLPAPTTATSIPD
T1 sequence (Q1W622 entry or part of it): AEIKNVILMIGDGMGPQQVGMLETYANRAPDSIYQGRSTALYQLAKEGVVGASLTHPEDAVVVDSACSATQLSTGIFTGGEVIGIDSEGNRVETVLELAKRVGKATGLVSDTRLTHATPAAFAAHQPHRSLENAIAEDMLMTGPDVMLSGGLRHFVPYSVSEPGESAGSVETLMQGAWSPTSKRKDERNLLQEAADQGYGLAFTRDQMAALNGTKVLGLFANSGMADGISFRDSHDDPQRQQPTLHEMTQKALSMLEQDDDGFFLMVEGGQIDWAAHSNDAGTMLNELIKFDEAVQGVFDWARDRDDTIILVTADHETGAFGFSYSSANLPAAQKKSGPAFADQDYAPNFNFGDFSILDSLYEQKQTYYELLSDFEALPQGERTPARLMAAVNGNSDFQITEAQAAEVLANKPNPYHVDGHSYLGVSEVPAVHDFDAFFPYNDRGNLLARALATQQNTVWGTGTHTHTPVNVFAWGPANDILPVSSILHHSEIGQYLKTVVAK

Q: With `Cn1c(=O)c2[nH]cnc2n(C)c1=O` [theophylline] as the molecule, how does the IC50 (ALP) read?
A: Its IC50 is 47 µM.

Q: What about the Ki (ALP) of the same molecule?
A: The Ki was 91 µM.

Q: What does the source list for `NC1CCCCC1` [cyclohexylamine]?
A: IC50 ([1]; VAP ref 27): 35700 µM; Michaelis–Menten constant in the presence of inhibitor (unchanging) ([1]; VAP ref 27): 195 ± 4 µM; type of inhibition ([1]; VAP ref 27): non-competitive; Ki ([1]; VAP, Ki equal to IC50 ref 27): 35700 µM

Q: Which “affinity relative to the chelator EDTA” value [2] does the source give for `O=C(O)c1cc2[nH]ccc2c(CO)n1` [guitarrin C] here?
A: The value was 1000 fold.

Q: And the “inhibitory activity against CmAP” value [2]?
A: The value was “pronounced inhibitory activity”.

Q: What about the “maximum inhibition of activity” value [3] of the same molecule?
A: Its value is 57%.

Q: And the IC50 [3]?
A: Its IC50 is 195 ± 2.2 µM.

Q: What about the Ki [3] of the same molecule?
A: The Ki was 38 ± 0.1 µM.

Q: And the type of inhibition ([3]; pNPP substrate)?
A: The type of inhibition was “non-competitive”.

Q: And the “maximum inhibition of activity” value [4]?
A: Its value is 85%.

Q: And the IC50 [4]?
A: The IC50 was 8.5 ± 0.08 µM.

Q: What about the residual activity [4] of the same molecule?
A: The residual activity was 15%.

Q: And the Ki [4]?
A: The Ki was 1.58 ± 0.04 µM.

Q: And the “activity relative to guitarrin D” value ([4]; more active)?
A: Its value is 10 fold.

Q: And the type of inhibition [4]?
A: The type of inhibition was “non-competitive”.

Q: What about the “Vmax in the presence of inhibitor” value [4] of the same molecule?
A: Its value is 2.62 ± 0.02 U mL^−1.

Q: With `N[C@@H](Cc1ccccc1)C(=O)O` [L-phenylalanine] as the molecule, how does the IC50 (ALP) read?
A: Its IC50 is 80 µM.

Q: With `c1ccc([C@H]2CN3CCSC3=N2)cc1` [levamisole] as the molecule, how does the IC50 (ALP) read?
A: Its IC50 is 19 µM.

Q: For guitarrin A, which “inhibitory activity against CmAP” value [2] is on record?
A: Its value is “no inhibitory activity; also recorded: non-inhibitory”.

Q: Which “inhibitory activity against CmAP” value [2] does the source give for guitarrin E here?
A: The value was “no inhibitory activity; also recorded: non-inhibitory”.

Q: With `O=C(O)c1nc(CO)c2cc[nH]c2c1O` [guitarrin D] as the molecule, how does the “affinity relative to the chelator EDTA” value [2] read?
A: The value was 100 fold.

Q: What about the “inhibitory activity against CmAP” value [2] of the same molecule?
A: The value was “pronounced inhibitory activity”.

Q: What about the “difference in inhibitory activity compared to guitarrin C” value [3] of the same molecule?
A: The value was 1.2 fold.

Q: What about the “maximum inhibition of activity” value [3] of the same molecule?
A: Its value is 57%.

Q: And the IC50 [3]?
A: The IC50 was 230 ± 1.6 µM.

Q: And the Ki [3]?
A: The Ki was 45 ± 0.2 µM.

Q: What about the “maximum inhibition of activity” value [4] of the same molecule?
A: The value was 85%.

Q: And the IC50 [4]?
A: Its IC50 is 110 ± 0.8 µM.

Q: And the residual activity [4]?
A: The residual activity was 15%.

Q: And the Ki [4]?
A: Its Ki is 20.56 ± 0.06 µM.

Q: And the type of inhibition [4]?
A: Its type of inhibition is “mixed type of inhibition”.

Q: And the “Vmax in the presence of inhibitor” value [4]?
A: The value was 3.98 ± 0.02 U mL^−1.

Q: What about the “decrease in Vmax” value ([4]; with versus without inhibitor) of the same molecule?
A: Its value is “more than 2 fold”.
